Series [1] in a line: Antiproliferative activity against human Olaparib-resistant CAPAN-1 cells assessed as cell proliferation inhibition incubated for 7 days by SRB assay. Type of series: functional, cell-based. In general terms: In SRB staining, fixed cells bind dye roughly in proportion to their protein.
Series [2] relates to CAPAN-1. Nature of the series: Antiproliferative activity against human CAPAN-1 cells assessed as cell proliferation inhibition incubated for 7 days by SRB assay. The class given is functional, cell-based.
Series [3] concerns CAPAN-1. The series is described as follows: Antiproliferative activity against human Talazoparib-resistant CAPAN-1 cells assessed as cell proliferation inhibition incubated for 7 days by SRB assay. Type of series: functional, cell-based.
The target of series [4] is Poly [ADP-ribose] polymerase 1 (Homo sapiens, UniProt P09874). Nature of the series: Inhibition of PARP1 (unknown origin) using histone as substrate by ELISA.
The nature of series [5]: Stabilization of human His-tagged PARP1-DNA complex assessed as increase in fluorescence signal incubated for 60 mins using NAD+ as substrate by DSB fluorescence polarization assay. A general note: In fluorescence polarisation assays a small probe gives low polarisation when free and higher when bound to something large.
A short description of series [6]: Clearance in Sprague-Dawley rat at 5 mg/kg, iv and measured upto 24 hrs. Type of series: ADME, organism-based. Particulars: in vivo.
Series [7] can be described thus: Half life in Sprague-Dawley rat at 5 mg/kg, iv and measured upto 24 hrs. Type of series: ADME, organism-based. The following applies: in vivo.

Sequence of Poly [ADP-ribose] polymerase 1 (P09874 whole entry): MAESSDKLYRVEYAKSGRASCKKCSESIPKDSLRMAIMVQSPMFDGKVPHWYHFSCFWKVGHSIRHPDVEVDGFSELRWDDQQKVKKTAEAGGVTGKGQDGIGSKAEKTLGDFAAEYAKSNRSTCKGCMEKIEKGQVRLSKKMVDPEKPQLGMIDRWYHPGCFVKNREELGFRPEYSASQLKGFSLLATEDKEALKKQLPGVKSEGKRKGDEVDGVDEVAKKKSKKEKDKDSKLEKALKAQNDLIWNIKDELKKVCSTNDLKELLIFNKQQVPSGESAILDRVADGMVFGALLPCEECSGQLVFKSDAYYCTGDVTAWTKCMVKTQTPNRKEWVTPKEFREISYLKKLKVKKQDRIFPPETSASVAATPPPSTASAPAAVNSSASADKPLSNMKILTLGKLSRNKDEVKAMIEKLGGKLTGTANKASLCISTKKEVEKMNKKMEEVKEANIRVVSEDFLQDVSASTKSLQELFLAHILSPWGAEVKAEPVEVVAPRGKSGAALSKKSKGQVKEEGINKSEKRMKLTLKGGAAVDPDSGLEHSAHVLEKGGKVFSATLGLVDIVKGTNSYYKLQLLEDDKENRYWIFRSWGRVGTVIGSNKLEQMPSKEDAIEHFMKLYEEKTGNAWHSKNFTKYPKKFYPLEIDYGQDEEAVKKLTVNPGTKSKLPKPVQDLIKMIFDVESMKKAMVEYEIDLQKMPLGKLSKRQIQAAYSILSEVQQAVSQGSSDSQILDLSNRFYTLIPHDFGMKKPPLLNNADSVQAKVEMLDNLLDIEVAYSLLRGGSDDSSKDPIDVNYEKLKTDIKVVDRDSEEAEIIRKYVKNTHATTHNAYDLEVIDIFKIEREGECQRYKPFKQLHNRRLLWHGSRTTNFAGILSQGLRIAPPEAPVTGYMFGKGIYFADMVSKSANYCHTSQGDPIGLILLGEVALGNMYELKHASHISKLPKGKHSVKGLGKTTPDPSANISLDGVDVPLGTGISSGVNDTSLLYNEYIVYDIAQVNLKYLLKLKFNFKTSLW

Consider `CNCC(F)(F)c1ccc(-c2nnc3n2CCN(C(=O)c2cc(Cc4n[nH]c(=O)c5ccccc45)ccc2F)C3)o1`, for which the IC50 – broadly, the midpoint of a concentration-inhibition curve – amounted to 423 nM in series [1], 24.3 nM with CAPAN-1 [2], 393 nM with CAPAN-1 [3] and 8.15 nM in series [4].

Turning to `O=C(c1cc(Cc2n[nH]c(=O)c3ccccc23)ccc1F)N1CCn2c(nnc2-c2ccc(CN3CCCCC3)o2)C1`, the IC50 amounted to 605 nM in series [1], 56.8 nM in the series with CAPAN-1 [2], 393 nM with CAPAN-1 [3] and 0.17 nM in series [4].

As to `O=C(c1cc(Cc2n[nH]c(=O)c3ccccc23)ccc1F)N1CCN(C(=O)C2CC2)CC1` [OLAPARIB], in series [5], the EC50 (in general, the midpoint of the concentration-response curve) was found to be 234 nM. The clearance (as a rule, a measure of how efficiently the substance is removed, as volume per time) in series [6] is 34.3 mL/min/kg. The half-life (as a rule, the time needed for the level to fall by half in the phase considered) in series [7] was 31.8 min.

On to `Cc1nc(-c2nnc3n2CCN(C(=O)c2cc(Cc4n[nH]c(=O)c5ccccc45)ccc2F)C3)cs1`, for which the values for the IC50 (with CAPAN-1 [2]; in the series with CAPAN-1 [3]; in series [4]) were 19 nM, 203 nM and 2.14 nM, respectively.

With `N#Cc1ccc(-c2nnc3n2CCN(C(=O)c2cc(Cc4n[nH]c(=O)c5ccccc45)ccc2F)C3)o1`, the IC50 in the series on CAPAN-1 [2] was 83.8 nM; in the series with CAPAN-1 [3], greater than 10000 nM; in series [4], 0.23 nM.

`O=C(c1cc(Cc2n[nH]c(=O)c3ccccc23)ccc1F)N1CCn2c(nnc2-c2ccoc2)C1`: the IC50 came out at 73.6 nM in series [1], 8.81 nM in the series on CAPAN-1 [2], 42.5 nM with CAPAN-1 [3] and 0.44 nM in series [4].

Turning to `O=C(c1cc(Cc2n[nH]c(=O)c3ccccc23)ccc1F)N1CCn2c(nnc2-c2ccc(C3COC3)o2)C1`, the IC50 in series [1] was found to be 363 nM; in the series on CAPAN-1 [2], 15.5 nM; with CAPAN-1 [3], 191 nM; in series [4] it was 6.19 nM.

For the compound `O=C(c1cc(Cc2n[nH]c(=O)c3ccccc23)ccc1F)N1CCn2c(nnc2-c2ccc([N+](=O)[O-])o2)C1`, the IC50 in series [1] stood at 178 nM; in the series with CAPAN-1 [2], 5.89 nM; in the series on CAPAN-1 [3], 214 nM; in series [4] it was 47.4 nM.

As to `O=C(c1cc(Cc2n[nH]c(=O)c3ccccc23)ccc1F)N1CCn2c(nnc2-c2ccc(C3CCOCC3)o2)C1`, the IC50 in series [1] worked out at 78.2 nM; with CAPAN-1 [2], 3.8 nM; in the series with CAPAN-1 [3] it was 78.4 nM; in series [4], 2.33 nM.

In the case of `O=C(c1cc(Cc2n[nH]c(=O)c3ccccc23)ccc1F)N1CCn2c(nnc2-c2ccc(C(F)(F)F)o2)C1`, the IC50 turned out to be 52.3 nM in series [1], 2.32 nM in the series on CAPAN-1 [2], 6.09 nM with CAPAN-1 [3] and 61.7 nM in series [4].

For `Cc1cccc(-c2nnc3n2CCN(C(=O)c2cc(Cc4n[nH]c(=O)c5ccccc45)ccc2F)C3)n1`, the IC50 stood at 42.2 nM in series [1], 6.47 nM in the series on CAPAN-1 [2], 68.5 nM in the series on CAPAN-1 [3] and 13.5 nM in series [4].

For `O=C(c1cc(Cc2n[nH]c(=O)c3ccccc23)ccc1F)N1CCn2c(nnc2-c2ccc(C(F)(F)CO)o2)C1`, the half-maximal inhibitory concentration (IC50) was 137 nM in series [1], 15.9 nM in the series on CAPAN-1 [2], 115 nM in the series on CAPAN-1 [3] and 5.67 nM in series [4].

For `O=C(c1cc(Cc2n[nH]c(=O)c3ccccc23)ccc1F)N1CCn2c(nnc2-c2ccc(Cl)o2)C1`, the IC50 in series [1] was 12.6 nM; in the series with CAPAN-1 [2] it was 1.48 nM; in the series on CAPAN-1 [3], 5.91 nM; in series [4], 0.74 nM.

For the compound `Cn1ccc(-c2nnc3n2CCN(C(=O)c2cc(Cc4n[nH]c(=O)c5ccccc45)ccc2F)C3)n1`, the IC50 in series [1] stood at 135 nM; in the series with CAPAN-1 [2] it was 30.4 nM; with CAPAN-1 [3], 168 nM; in series [4] it was 6.34 nM.

In the case of `Cc1cc(-c2nnc3n2CCN(C(=O)c2cc(Cc4n[nH]c(=O)c5ccccc45)ccc2F)C3)oc1C`, the IC50 in series [1] is 22.1 nM; with CAPAN-1 [2] it was 1.44 nM; in the series with CAPAN-1 [3], 21 nM; in series [4], less than 0.001 nM.

On to `O=C(c1cc(Cc2n[nH]c(=O)c3ccccc23)ccc1F)N1CCn2c(nnc2C2CCOC2)C1` (stereo not given), for which the IC50 in series [1] stood at 1110 nM; with CAPAN-1 [2], 39.1 nM; in the series with CAPAN-1 [3] it was 517 nM; in series [4] it was 1.91 nM.

Turning to `Cn1ncnc1[C@H]1c2n[nH]c(=O)c3cc(F)cc(c23)N[C@@H]1c1ccc(F)cc1` [TALAZOPARIB], the IC50 was 686 nM in series [1], 7.77 nM in the series with CAPAN-1 [2] and 906 nM in the series on CAPAN-1 [3].

With `O=C(c1cc(Cc2n[nH]c(=O)c3ccccc23)ccc1F)N1CCn2c(nnc2-c2ccc(CN3CCSCC3)o2)C1`, the IC50 in series [1] was found to be 618 nM; in the series with CAPAN-1 [2], 50.5 nM; in the series on CAPAN-1 [3], 404 nM; in series [4] it was 0.02 nM.

Consider `CP(C)(=O)c1ccc(-c2nnc3n2CCN(C(=O)c2cc(Cc4n[nH]c(=O)c5ccccc45)ccc2F)C3)o1`, for which the concentration for half-maximal inhibition (IC50) was greater than 10000 nM in series [1], 3550 nM in the series on CAPAN-1 [2], greater than 10000 nM in the series on CAPAN-1 [3] and 12.9 nM in series [4].

As for `O=C(c1cc(Cc2n[nH]c(=O)c3ccccc23)ccc1F)N1CCn2c(nnc2-c2ccc(CN3CCOCC3)o2)C1`, the concentration for half-maximal inhibition (IC50) in series [1] amounted to 5140 nM; in the series with CAPAN-1 [2], 290 nM; in the series on CAPAN-1 [3], 2000 nM; in series [4] it was 1.28 nM.

For `Cn1cc(-c2nnc3n2CCN(C(=O)c2cc(Cc4n[nH]c(=O)c5ccccc45)ccc2F)C3)cn1`, the IC50 in series [1] is 7160 nM; with CAPAN-1 [2], 351 nM; in the series with CAPAN-1 [3], 6990 nM; in series [4] it was 7.32 nM.

As to `O=C(c1cc(Cc2n[nH]c(=O)c3ccccc23)ccc1F)N1CCn2c(nnc2-c2ccc(CN3CCCC3)o2)C1`, the IC50 in series [1] amounted to 1430 nM; with CAPAN-1 [2], 161 nM; in the series with CAPAN-1 [3], 905 nM; in series [4], 1.26 nM.

For `Cc1ccc(-c2nnc3n2CCN(C(=O)c2cc(Cc4n[nH]c(=O)c5ccccc45)ccc2F)C3)o1`, the IC50 in series [1] was determined as 8.28 nM; in the series with CAPAN-1 [2] it was 1.82 nM; in the series with CAPAN-1 [3] it was 9.98 nM; in series [4], 0.24 nM.

As to `NC(=O)c1cccc2cn(-c3ccc([C@@H]4CCCNC4)cc3)nc12` [NIRAPARIB], in series [5], the EC50 came out at 621 nM.

Regarding `O=C(c1cc(Cc2n[nH]c(=O)c3ccccc23)ccc1F)N1CCn2c(nnc2-c2ccc(C(F)F)o2)C1`, the IC50 came to 71.1 nM in series [1], 6.64 nM in the series with CAPAN-1 [2], 70.3 nM in the series on CAPAN-1 [3] and 23.1 nM in series [4].

For `O=C(c1cc(Cc2n[nH]c(=O)c3ccccc23)ccc1F)N1CCn2c(nnc2-c2ccco2)C1`, the IC50 came to 56.4 nM in series [1], 7.39 nM with CAPAN-1 [2], 40 nM in the series with CAPAN-1 [3] and 0.26 nM in series [4].

As for `CCN(CC)Cc1ccc(-c2nnc3n2CCN(C(=O)c2cc(Cc4n[nH]c(=O)c5ccccc45)ccc2F)C3)o1`, the IC50 in series [1] was 812 nM; with CAPAN-1 [2], 98.3 nM; in the series with CAPAN-1 [3] it was 701 nM; in series [4], 0.96 nM.

With `NCC(F)(F)c1ccc(-c2nnc3n2CCN(C(=O)c2cc(Cc4n[nH]c(=O)c5ccccc45)ccc2F)C3)o1`, the IC50 in series [1] was 766 nM; in the series on CAPAN-1 [2], 122 nM; in the series on CAPAN-1 [3], 627 nM; in series [4] it was 8.49 nM.

Take `O=C(c1cc(Cc2n[nH]c(=O)c3ccccc23)ccc1F)N1CCn2c(nnc2-c2ccc(CN3CCC3)o2)C1`: the IC50 was determined as 6490 nM in series [1], 349 nM with CAPAN-1 [2], 5590 nM with CAPAN-1 [3] and 0.96 nM in series [4].

Turning to `CN(C)Cc1ccc(-c2nnc3n2CCN(C(=O)c2cc(Cc4n[nH]c(=O)c5ccccc45)ccc2F)C3)o1`, the IC50 in series [1] was found to be 1030 nM; in the series on CAPAN-1 [2] it was 151 nM; with CAPAN-1 [3] it was 941 nM; in series [4], 1.35 nM.

`O=C(c1cc(Cc2n[nH]c(=O)c3ccccc23)ccc1F)N1CCn2c(nnc2-c2cc(Br)c(Cl)o2)C1`: the IC50 in series [1] is 20.3 nM; with CAPAN-1 [2] it was 0.24 nM; in the series on CAPAN-1 [3], 12.1 nM; in series [4] it was less than 0.1 nM.

In the case of `CNCc1ccc(-c2nnc3n2CCN(C(=O)c2cc(Cc4n[nH]c(=O)c5ccccc45)ccc2F)C3)o1`, the IC50 was found to be 6150 nM in series [1], 500 nM in the series on CAPAN-1 [2], 4600 nM with CAPAN-1 [3] and 0.86 nM in series [4].

Take `O=C(c1cc(Cc2n[nH]c(=O)c3ccccc23)ccc1F)N1CCn2c(nnc2-c2ccno2)C1`: the IC50 in series [1] amounted to 348 nM; in the series on CAPAN-1 [2], 18.6 nM; in the series on CAPAN-1 [3], 249 nM; in series [4] it was 0.97 nM.
